Source: ChEMBL document CHEMBL1201862, “PubChem BioAssay data set” (2004)
Values joined by “and” are separate entries in the source; they are usually repeats but may differ in a detail not shown here. Identical values can stand only once. Active and inactive are the calls of the source.

What was measured:
[1] = target: T1, Voltage-gated N-type calcium channel alpha-1B subunit/Amyloid beta A4 precursor protein-binding family A member 1 (Homo sapiens, UniProt Q00975+Q02410); experiment: disruptors of Mint-PDZ/N-type channel peptide interaction – biochemical, HTRF, SAR follow-up (AID 2489); format: functional
SUMO E1/E2 = SUMO E1/E2 (Homo sapiens, UniProt P63279+Q9UBE0+Q9UBT2); experiment: SAR analysis of SUMOylation using HTRF in an in-Vitro dose response assay. [Related pubchem assays (depositor defined):AID2006, AID2011, AID2018, AID2069, AID2658]; format: functional
[2] = target: T1, Voltage-gated N-type calcium channel alpha-1B subunit/Amyloid beta A4 precursor protein-binding family A member 1; experiment: disruptors of Mint-PDZ/N-type channel peptide interaction – biochemical, HTRF, set 2, SAR follow-up (AID 434980); format: functional
[3] = target: T2, Mannose-6-phosphate isomerase (Homo sapiens, UniProt P34949); experiment: phosphomannose isomerase inhibition – biochemical, fluorescence intensity, confirmation (AID 1535)
T2 sequence (P34949 whole entry): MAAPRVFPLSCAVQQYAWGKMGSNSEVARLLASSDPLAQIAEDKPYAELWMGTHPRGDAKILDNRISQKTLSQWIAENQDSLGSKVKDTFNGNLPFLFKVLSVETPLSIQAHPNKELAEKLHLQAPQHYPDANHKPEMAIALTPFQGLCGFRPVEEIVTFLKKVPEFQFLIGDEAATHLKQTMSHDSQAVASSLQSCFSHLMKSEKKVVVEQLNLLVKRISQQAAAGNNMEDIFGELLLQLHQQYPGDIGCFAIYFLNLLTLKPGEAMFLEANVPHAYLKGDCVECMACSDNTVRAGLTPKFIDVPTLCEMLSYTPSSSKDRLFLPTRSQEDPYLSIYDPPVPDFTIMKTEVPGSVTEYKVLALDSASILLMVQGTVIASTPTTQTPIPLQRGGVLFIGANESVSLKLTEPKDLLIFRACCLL

Phosphomannomutase 2 = Phosphomannomutase 2 (Homo sapiens, UniProt O15305); experiment: Counter screen SAR assay for PMM2 inhibitors via a fluorescence intensity assay. [Related pubchem assays (depositor defined):AID1545, AID1574]
Cytochrome P450 1A2 = target: T3, Cytochrome P450 1A2 (Homo sapiens, UniProt P05177);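 further: PubChem cytochrome P450 panel assay, CYP1A2 panel member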
T3 sequence (P05177 whole entry): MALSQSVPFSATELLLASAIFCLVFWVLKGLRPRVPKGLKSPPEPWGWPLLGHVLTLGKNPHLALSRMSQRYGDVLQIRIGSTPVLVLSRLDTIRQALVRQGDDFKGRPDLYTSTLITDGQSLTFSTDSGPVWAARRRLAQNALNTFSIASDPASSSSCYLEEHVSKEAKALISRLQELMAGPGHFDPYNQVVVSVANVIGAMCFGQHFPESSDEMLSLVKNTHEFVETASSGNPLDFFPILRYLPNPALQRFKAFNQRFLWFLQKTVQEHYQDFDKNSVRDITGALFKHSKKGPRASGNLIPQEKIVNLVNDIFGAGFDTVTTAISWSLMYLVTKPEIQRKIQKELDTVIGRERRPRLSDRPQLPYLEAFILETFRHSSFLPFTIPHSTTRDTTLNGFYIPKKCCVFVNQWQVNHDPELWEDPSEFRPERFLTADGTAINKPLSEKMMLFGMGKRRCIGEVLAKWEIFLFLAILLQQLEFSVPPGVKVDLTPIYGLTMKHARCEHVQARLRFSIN

Nonstructural protein 1 = Nonstructural protein 1 (Influenza A virus, UniProt Q194T2); format: functional, Influenza A virus (A/California/07/2009(H1N1))
[4] = viability of HCT116 lacking mutant beta-catenin – cell-based, human colon tumor, dose response (AID 1045); format: functional;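 further: HCT116 colon tumor cells with beta catenin knocked out; cells exposed to compound for 60 hours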
[5] = viability of PTEN-deleted HCT116 cells – cell-based, HCT116 PTEN knockout, dose response (AID 1047); format: functional;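 further: HCT116 colon tumor cells with PTEN knocked out; cells exposed to compound for 60 hours before readout; potency for loss of cell viability measured by luminescence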
[6] = fluconazole-exposed Candida albicans growth modulators – fluorescence, retest, confirmation (AID 2467); format: functional, cell-based
[7] = decrease of insulin promoter-GFP reporter – imaging, high-content screening, mouse beta cells (AID 1628); format: functional; conditions: MIN6
[8] = target: T4, DNA repair and recombination protein RAD54-like (Homo sapiens, UniProt Q92698); experiment: RAD54 Holliday junction migration blockers – biochemical, fluorescence, cherry-picked samples, dose series, confirmation (AID 651657); format: functional
T4 sequence (Q92698 whole entry): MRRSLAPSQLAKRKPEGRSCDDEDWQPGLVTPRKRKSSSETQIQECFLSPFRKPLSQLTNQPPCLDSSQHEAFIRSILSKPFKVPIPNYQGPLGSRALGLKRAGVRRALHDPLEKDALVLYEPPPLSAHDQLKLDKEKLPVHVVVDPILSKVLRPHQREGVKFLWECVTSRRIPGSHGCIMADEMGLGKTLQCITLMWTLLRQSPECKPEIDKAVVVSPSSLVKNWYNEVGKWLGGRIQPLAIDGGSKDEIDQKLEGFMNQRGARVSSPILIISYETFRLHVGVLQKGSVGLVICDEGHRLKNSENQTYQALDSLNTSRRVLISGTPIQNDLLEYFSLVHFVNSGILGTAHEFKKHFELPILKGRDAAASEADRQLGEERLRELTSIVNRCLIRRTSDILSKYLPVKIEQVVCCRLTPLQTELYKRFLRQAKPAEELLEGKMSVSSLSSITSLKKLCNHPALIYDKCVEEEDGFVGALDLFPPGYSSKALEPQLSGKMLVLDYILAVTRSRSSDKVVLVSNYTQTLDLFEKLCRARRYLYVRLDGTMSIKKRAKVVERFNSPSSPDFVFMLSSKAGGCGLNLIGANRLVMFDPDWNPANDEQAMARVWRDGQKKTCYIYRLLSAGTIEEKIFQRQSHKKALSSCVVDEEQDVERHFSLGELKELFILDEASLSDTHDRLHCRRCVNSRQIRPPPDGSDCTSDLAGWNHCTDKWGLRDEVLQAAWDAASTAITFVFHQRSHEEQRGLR

[9] = Luminescence-based counterscreen assay for KLF5 inhibitors: dose response cell-based high throughput screening assay to identify cytotoxic compounds using the IEC-6 intestinal epithelial cell line. [Related pubchem assays: 1700 (Primary screen.), 1834 (Confirmation screen.), 1858 (Summary AID.), 1905 (Counterscreen.)]; format: functional
[10] = cytotoxicity toward MDA-MB-231 breast cancer cells – cell-based, CellTiter-Glo luminescence, cherry-pick, cytotoxicity control for RAD54 inhibitor project, dose response (AID 651692); format: functional
INS1 = experiment: INS-1E survival protection against cytokine death – cell-based, luminescence, retest, dose response (AID 449756); format: functional; conditions: Rattus norvegicus;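 further: cell death triggered by IL-1 beta plus TNF-alpha plus IFN-gamma mixture; protective hits raise ATP signal compared with cytokine alone wells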
[11] = MIN6 cell viability loss – mouse insulinoma, cytotoxicity control, dose response (AID 2122); format: functional;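 further: confirmatory high-throughput counterscreen run to flag cytotoxic compounds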
[12] = Trypanosoma cruzi growth suppression in host cells – NIH3T3 host cells, beta-gal luminescence, confirmation (AID 2044); format: functional, cell-based;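 further: intracellular parasites grown in NIH/3T3 mouse fibroblasts as host cells; luminescent beta-galactosidase reporter signal from transgenic T. cruzi replicating inside host cells; inhibitors lower the luminescence signal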
[13] = target: T2, Mannose-6-phosphate isomerase; experiment: MPI enzyme activity inhibition – biochemical, fluorescence intensity, coupled assay, primary screen (AID 1209)
[14] = NIH-3T3 fibroblast cytotoxicity, dose response, cytotoxicity control, cell-based, fluorescence, Alamar Blue, secondary assay (AID 2327); format: functional;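 further: NIH-3T3 mouse fibroblasts cultured with fluconazole at 8 µg/mL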
[15] = NIH3T3 cell viability loss – ATP luminescence, mouse fibroblasts, counter-screen, dose response (AID 2010); format: functional, cell-based;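 further: cells exposed to compound for about 90 hours before reading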

T1 sequence (Q00975 whole entry): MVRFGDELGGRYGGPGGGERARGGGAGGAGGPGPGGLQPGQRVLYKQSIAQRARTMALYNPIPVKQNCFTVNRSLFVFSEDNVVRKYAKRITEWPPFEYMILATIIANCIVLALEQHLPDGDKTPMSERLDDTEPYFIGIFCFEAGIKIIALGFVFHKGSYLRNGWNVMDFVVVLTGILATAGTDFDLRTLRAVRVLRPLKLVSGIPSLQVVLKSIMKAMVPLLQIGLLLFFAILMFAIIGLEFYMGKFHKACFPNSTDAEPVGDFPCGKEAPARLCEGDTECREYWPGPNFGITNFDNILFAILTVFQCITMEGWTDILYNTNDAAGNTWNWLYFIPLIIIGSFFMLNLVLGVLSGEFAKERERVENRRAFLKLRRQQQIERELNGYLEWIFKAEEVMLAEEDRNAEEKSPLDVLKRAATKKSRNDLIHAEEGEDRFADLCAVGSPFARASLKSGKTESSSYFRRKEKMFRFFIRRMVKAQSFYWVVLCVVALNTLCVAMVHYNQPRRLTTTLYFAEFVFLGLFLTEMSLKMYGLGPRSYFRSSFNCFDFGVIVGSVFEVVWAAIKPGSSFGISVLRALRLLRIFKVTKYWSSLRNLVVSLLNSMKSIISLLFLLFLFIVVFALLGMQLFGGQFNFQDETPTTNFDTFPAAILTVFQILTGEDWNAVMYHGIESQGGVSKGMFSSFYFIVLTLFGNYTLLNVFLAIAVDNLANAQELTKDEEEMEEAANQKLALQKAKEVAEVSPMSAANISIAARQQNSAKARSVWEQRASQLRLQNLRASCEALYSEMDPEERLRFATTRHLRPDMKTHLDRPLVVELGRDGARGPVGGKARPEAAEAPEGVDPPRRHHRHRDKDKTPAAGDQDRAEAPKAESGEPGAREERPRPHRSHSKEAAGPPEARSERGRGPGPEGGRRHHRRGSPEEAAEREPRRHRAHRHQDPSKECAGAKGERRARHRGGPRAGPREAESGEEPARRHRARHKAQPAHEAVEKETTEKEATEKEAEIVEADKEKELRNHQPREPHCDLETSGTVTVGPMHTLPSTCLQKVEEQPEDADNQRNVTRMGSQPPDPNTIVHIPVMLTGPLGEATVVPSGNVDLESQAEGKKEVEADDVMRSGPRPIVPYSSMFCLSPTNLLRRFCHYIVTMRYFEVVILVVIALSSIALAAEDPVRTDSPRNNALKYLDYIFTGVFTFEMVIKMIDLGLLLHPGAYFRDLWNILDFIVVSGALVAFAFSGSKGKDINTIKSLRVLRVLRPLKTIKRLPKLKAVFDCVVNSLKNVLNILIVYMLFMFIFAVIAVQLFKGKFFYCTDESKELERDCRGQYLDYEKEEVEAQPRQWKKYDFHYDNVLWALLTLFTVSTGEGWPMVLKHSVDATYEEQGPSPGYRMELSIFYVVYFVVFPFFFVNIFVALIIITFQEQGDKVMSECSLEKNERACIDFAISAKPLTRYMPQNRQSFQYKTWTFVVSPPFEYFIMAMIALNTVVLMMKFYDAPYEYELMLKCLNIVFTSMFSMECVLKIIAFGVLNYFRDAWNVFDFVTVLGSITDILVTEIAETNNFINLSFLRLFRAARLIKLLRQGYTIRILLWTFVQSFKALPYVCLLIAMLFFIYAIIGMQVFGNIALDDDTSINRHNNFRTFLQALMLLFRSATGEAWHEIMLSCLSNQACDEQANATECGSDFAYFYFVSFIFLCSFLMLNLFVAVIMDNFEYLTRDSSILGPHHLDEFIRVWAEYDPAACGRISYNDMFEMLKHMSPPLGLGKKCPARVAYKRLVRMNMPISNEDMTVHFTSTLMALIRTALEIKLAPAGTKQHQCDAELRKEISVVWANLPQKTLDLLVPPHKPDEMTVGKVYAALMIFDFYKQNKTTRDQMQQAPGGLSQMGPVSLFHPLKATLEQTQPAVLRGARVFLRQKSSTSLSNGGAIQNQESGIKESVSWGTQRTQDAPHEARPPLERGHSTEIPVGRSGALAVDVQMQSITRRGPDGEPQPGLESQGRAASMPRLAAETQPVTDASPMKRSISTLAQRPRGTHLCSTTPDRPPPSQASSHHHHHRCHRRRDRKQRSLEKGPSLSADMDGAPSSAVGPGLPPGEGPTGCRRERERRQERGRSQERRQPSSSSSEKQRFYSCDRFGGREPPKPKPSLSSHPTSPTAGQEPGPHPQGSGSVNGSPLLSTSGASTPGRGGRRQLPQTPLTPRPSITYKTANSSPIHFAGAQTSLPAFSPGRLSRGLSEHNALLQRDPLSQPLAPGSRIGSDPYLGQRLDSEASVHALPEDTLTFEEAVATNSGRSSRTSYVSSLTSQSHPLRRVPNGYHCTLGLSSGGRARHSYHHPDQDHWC
T1 sequence (Q02410 whole entry): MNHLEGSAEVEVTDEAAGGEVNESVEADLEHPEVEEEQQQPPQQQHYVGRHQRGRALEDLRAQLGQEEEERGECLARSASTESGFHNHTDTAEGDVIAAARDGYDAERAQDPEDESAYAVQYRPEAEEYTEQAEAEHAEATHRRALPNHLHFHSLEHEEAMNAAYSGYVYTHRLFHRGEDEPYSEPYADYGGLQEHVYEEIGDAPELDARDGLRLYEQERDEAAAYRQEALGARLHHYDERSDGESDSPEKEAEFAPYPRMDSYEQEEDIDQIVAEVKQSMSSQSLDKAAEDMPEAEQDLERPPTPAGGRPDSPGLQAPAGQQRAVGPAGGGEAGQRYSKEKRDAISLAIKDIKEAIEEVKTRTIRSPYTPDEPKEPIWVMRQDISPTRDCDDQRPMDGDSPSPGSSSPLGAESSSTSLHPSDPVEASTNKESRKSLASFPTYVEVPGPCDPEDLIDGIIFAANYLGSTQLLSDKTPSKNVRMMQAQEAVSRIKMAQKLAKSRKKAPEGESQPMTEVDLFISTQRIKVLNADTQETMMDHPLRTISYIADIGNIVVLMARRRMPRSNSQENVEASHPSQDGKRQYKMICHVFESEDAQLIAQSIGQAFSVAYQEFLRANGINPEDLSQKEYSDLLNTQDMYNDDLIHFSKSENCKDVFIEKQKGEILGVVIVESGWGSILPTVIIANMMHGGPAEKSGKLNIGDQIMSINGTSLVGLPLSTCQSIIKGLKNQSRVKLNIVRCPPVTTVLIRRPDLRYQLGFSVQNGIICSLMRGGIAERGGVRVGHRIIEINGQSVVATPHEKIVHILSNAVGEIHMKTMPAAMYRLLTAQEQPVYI
Sequence of SUMO E1/E2 (Q9UBE0 whole entry): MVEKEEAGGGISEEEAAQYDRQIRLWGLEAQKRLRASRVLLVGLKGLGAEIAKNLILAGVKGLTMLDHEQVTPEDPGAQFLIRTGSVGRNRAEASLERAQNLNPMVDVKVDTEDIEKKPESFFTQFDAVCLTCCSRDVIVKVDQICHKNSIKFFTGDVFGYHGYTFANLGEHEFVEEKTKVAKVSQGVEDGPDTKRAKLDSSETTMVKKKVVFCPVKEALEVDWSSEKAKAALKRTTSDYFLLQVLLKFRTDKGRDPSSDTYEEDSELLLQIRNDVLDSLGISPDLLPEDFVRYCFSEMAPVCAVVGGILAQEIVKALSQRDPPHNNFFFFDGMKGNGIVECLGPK
Sequence of SUMO E1/E2 (Q9UBT2 whole entry): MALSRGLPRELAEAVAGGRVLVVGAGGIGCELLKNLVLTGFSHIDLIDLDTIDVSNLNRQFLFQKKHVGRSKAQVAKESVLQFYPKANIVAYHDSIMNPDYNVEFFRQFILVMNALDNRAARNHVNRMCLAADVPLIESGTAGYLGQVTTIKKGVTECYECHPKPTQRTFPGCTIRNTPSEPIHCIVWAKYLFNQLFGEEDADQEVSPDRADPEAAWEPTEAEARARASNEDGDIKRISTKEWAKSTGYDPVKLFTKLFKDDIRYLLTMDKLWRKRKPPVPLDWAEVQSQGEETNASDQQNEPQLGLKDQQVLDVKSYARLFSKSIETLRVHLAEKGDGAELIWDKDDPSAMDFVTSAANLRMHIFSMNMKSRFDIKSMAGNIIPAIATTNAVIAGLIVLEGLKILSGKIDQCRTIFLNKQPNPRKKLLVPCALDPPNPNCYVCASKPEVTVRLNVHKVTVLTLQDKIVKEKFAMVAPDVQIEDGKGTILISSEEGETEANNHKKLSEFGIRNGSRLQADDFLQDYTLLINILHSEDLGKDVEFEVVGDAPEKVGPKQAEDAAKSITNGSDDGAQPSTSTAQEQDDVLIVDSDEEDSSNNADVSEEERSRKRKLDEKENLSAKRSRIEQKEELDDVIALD
Sequence of SUMO E1/E2 (P63279 whole entry): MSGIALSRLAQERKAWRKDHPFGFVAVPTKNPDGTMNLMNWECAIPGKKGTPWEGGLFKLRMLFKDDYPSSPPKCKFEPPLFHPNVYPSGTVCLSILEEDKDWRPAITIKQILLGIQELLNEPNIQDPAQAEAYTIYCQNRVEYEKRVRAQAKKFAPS
Sequence of Phosphomannomutase 2 (O15305 whole entry): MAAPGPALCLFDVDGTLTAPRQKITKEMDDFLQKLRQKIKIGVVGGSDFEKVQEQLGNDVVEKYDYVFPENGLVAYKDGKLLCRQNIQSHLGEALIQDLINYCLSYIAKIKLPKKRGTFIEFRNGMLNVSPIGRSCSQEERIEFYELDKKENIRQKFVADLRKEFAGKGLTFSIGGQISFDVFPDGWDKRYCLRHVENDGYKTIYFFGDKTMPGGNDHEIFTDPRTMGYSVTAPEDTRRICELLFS
Sequence of Nonstructural protein 1 (Q194T2 whole entry): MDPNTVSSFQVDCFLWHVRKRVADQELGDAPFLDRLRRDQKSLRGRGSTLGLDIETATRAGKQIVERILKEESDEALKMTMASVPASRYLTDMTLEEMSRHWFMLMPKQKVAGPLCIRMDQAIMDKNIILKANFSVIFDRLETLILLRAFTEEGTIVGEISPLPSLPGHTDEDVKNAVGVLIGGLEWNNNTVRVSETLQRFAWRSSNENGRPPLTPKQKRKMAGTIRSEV

O=C(COC(=O)c1cc(-c2ccco2)nc2ccccc12)NCc1ccc(Cl)cc1
IC50 [1]: 10.4 µM (active) and > 56.8 µM (inactive)
IC50 (SUMO E1/E2): 2.84 µM (active) and 4.46 µM (active)
IC50 [2]: 7.73 µM (active) and 9.82 µM (active)

Clc1nss/c1=N\c1nncs1
IC50 [3]: 3.1 µM (active) and 2.3 µM (active)
IC50 (Phosphomannomutase 2): > 100 µM (inactive)

CC(C)CN1CC2(CCN(C(=O)c3csnn3)CC2)C1
AC50 (Cytochrome P450 1A2): inactive

Oc1cccc2ccc(Nc3ccccn3)nc12
IC50 (Nonstructural protein 1): 2.35 µM (active)
EC50 [4]: 0.713 µM (active)
EC50 [5]: 1.23 µM (active)
EC50 [6]: 1.55 µM (active)
IC50 [7]: 3.03 µM (active)
AC50 [8]: 15.5 µM (active)
IC50 [9]: 6.8 µM (active)
AC50 [10]: 15.1 µM (active)
AC50 (INS1): 1.18 µM (active)
IC50 [11]: 2.35 µM (active)
EC50 [12]: 1.12 µM (active)
IC50 [13]: > 50 µM (not active)
EC50 [14]: 4.93 µM (inconclusive)
EC50 [15]: 6 µM (active)
